Like-named read-outs stand apart in the source and are kept apart here. Each block holds one compound with its values, some of them ahead of it.
Experiments:
human N-type Ca channel [1] = biological target: T1, human N-type Ca channel (Homo sapiens, UniProt Q00975); test: Calcium influx assay (FDSS), KCl depolarization, Fluo8 dye; assay type: cell-based; design: host or cells: HEK 293
Description: All cell culture reagents were procured from HyClone and other reagents were from Fisher. Recombinant HEK 293 cells expressing human N-type Ca channel (Millipore) were maintained in DMEM F12 containing 10% FBS and selection antibiotics at 37 °C in 5% CO2.
Cells were incubated at 30 °C in 5% CO2 overnight. The medium was removed and cells were loaded with Fluo8 dye (AAT Bioquest) at 37 °C and 30 °C, 30 min each in darkness. Cells were washed four times with wash buffer (16 mM Herep pH 7.2, 2 mM CaCl2, 1 mM MgCl2, 5 mM glucose, 140 mM choline chloride and 2 mM KCl) leaving 15 µL buffer after the last wash. Compounds of Formula (I), serially diluted, were added to the cell plate. The plates were incubated in darkness for 15 min. Cells were depolarized with 100 mM KCl and Ca influx was measured.

human N-type Ca channel [2] = biological target: T1, human N-type Ca channel; test: Electrophysiological response, QPatch (depolarization -80 mV to +20 mV)
[3] = HEK 293 cells expressing human N-type Ca channel, 100 mM KCl, read-out: N Type IC50 Data FDSS
[4] = N Type IC50 Data Qpatch Pulse=1, Pulse=1, concentration range 0.01-1 µM
[5] = read-out: N Type IC50 Data Qpatch Pulse=15, Pulse=15, concentration range 0.01-1 µM
[6] = N Type IC50 Data Qpatch Pulse=1, Pulse=1, concentration range 0.3-10 µM
[7] = N Type IC50 Data Qpatch Pulse=15, Pulse=15, concentration range 0.3-10 µM
[8] = N Type IC50 Data Qpatch Pulse=15, Pulse=15, concentration range 0.01-1 µM
[9] = Pulse=1, concentration range 0.01-0.3 µM
[10] = Pulse=15, concentration range 0.01-0.3 µM
[11] = read-out: N Type IC50 Data Qpatch Pulse=1, Pulse=1, concentration range 0.01-1 µM
[12] = read-out: Qpatch Pulse=1 (percent inhibition)
[13] = N Type IC50 Data Qpatch Pulse=15, Pulse=15, concentration range 0.01-0.3 µM

T1 sequence (Q00975 whole entry): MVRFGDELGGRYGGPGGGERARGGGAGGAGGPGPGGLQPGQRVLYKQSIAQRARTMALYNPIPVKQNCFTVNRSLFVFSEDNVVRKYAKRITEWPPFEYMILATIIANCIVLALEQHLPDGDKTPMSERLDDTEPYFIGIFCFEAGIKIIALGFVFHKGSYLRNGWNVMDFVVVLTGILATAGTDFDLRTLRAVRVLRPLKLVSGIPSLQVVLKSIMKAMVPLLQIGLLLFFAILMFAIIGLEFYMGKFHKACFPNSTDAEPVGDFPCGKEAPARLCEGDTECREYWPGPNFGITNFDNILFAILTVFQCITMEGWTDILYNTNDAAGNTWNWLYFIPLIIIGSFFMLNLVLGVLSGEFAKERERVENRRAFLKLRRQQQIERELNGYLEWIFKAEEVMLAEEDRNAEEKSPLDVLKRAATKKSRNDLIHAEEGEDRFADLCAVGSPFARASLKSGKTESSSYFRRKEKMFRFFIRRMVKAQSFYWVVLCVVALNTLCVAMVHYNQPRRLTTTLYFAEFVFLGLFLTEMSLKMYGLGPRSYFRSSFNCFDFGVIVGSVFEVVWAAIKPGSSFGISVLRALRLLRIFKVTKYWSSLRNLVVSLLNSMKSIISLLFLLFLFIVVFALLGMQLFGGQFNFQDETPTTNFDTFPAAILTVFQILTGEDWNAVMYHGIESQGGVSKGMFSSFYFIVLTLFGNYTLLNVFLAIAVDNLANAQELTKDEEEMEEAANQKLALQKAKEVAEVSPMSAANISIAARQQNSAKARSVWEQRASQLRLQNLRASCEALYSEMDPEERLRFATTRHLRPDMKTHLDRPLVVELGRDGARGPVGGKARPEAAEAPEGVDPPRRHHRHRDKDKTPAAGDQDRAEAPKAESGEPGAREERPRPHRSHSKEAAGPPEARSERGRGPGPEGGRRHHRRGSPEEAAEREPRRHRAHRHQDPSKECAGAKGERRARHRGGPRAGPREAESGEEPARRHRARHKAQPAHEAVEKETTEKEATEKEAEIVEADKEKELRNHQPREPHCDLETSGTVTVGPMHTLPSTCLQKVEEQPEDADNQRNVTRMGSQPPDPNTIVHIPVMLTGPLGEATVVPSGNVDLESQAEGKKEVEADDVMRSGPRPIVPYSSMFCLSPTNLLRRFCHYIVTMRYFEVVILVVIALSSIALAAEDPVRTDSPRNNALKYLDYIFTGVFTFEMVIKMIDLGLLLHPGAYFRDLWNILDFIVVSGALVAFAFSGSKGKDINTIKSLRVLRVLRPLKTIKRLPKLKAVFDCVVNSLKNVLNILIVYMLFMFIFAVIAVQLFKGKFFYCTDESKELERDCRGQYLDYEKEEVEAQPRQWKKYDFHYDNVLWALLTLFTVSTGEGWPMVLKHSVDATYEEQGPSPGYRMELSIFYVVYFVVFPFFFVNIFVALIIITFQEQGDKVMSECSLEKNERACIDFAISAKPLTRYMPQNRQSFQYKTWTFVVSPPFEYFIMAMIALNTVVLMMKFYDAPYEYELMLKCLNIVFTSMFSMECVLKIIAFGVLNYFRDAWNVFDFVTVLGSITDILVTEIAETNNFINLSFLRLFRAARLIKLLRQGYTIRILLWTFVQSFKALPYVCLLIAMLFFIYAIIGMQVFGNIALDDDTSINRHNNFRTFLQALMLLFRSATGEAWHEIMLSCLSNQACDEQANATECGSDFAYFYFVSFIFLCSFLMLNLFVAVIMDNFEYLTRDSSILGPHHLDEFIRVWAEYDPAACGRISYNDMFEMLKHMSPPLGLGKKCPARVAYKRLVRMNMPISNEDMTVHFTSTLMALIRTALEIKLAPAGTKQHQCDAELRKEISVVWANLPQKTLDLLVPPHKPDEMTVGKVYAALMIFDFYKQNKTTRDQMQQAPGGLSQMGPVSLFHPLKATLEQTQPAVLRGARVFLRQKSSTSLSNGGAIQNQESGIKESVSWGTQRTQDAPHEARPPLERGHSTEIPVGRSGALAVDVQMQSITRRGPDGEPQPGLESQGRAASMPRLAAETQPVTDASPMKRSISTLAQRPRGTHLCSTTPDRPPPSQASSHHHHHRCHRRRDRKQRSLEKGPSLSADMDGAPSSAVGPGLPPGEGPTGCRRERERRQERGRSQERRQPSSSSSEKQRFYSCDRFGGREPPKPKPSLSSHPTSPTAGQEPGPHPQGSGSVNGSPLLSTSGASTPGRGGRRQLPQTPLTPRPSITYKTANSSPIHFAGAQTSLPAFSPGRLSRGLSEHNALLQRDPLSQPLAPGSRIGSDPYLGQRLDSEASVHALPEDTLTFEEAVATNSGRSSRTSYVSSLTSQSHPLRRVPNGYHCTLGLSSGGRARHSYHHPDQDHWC
T1 sequence (P54284 whole entry partner): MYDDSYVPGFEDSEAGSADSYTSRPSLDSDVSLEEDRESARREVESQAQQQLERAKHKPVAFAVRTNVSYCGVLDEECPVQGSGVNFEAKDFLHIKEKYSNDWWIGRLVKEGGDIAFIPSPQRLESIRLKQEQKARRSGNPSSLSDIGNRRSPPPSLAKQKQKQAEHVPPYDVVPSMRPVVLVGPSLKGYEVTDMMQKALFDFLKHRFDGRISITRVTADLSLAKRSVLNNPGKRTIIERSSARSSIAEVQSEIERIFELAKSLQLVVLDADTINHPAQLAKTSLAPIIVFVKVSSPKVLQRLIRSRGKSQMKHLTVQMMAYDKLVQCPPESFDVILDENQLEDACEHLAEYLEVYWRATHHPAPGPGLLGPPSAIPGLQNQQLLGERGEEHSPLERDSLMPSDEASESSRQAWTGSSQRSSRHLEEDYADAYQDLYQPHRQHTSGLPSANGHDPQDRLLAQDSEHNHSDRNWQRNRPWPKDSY
T1 sequence (P54289 25-956 partner limits assumed): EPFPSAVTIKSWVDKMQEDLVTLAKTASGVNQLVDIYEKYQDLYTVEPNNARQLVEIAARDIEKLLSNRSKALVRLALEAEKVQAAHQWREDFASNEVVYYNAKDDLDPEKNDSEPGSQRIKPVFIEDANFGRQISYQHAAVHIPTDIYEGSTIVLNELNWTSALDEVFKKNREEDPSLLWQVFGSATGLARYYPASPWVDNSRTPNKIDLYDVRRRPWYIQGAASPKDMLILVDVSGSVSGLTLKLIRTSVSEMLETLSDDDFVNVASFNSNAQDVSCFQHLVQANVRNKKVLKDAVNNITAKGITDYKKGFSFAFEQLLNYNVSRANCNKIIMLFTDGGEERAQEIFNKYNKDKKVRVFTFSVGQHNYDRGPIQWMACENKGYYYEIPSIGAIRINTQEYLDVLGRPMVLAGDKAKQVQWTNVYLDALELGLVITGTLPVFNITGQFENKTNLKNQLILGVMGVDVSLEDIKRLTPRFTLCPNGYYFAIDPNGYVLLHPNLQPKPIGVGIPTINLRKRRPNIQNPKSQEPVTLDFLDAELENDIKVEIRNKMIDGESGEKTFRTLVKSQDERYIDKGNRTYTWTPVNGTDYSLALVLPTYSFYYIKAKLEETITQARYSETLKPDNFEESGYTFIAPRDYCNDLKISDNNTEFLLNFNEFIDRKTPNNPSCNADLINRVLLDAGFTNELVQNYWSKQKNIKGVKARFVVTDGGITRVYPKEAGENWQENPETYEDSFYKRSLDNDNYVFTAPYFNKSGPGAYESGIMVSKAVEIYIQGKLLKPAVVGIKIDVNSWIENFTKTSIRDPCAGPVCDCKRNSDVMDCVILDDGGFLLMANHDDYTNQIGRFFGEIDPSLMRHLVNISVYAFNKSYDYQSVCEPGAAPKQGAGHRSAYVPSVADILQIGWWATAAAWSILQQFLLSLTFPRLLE
T1 sequence (P54289 957-1103 partner limits assumed): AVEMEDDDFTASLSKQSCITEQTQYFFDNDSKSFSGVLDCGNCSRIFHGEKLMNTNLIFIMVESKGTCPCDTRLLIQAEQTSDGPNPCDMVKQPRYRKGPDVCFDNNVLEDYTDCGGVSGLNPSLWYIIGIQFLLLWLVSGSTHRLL

IC50 (human N-type Ca channel [1]; [3]): 818 nM
IC50 (human N-type Ca channel [2]; [4]): > 1000 nM
IC50 (human N-type Ca channel [2]; [5]): > 1000 nM
SMILES: COc1ncccc1-c1nc(C2CC(C)(C)OC(C)(C)C2)cn1-c1ccc(C)c(C#N)c1 [Compound 25, 5-(2-(2-methoxypyridin-3-yl)-4-(2,2,6,6-tetramethyltetrahydro-2H-pyran-4-yl)-1H-imidazol-1-yl)-2-methylbenzonitrile]

IC50 (human N-type Ca channel [1]; [3]): 150 nM
IC50 (human N-type Ca channel [2]; [6]): 8100 nM
SMILES: COc1ccccc1-c1nc(C2(O)CC(C)(C)OC(C)(C)C2)cn1-c1ccc(C#N)c(F)c1 [Compound 118, 2-fluoro-4-(4-(4-hydroxy-2,2,6,6-tetramethyltetrahydro-2H-pyran-4-yl)-2-(2-methoxyphenyl)-1H-imidazol-1-yl)benzonitrile]

SMILES: COc1ccccc1-c1nc(C2CC(C)(C)OC(C)(C)C2)cn1S(=O)(=O)CC(C)C [Compound 96, 1-(isobutylsulfonyl)-2-(2-methoxyphenyl)-4-(2,2,6,6-tetramethyltetrahydro-2H-pyran-4-yl)-1H-imidazole]
IC50 (human N-type Ca channel [1]): 768 nM
IC50 (human N-type Ca channel [2]; [7]): 5400 nM

IC50 (human N-type Ca channel [1]; [3]): 29 nM
IC50 (human N-type Ca channel [2]; [4]): 179 nM
IC50 (human N-type Ca channel [2]; [8]): 701 nM
SMILES: CCOc1ncccc1-c1nc(C2CC(C)(C)OC(C)(C)C2)cn1-c1ccc(Cl)cc1 [Compound 51, 3-(1-(4-chlorophenyl)-4-(2,2,6,6-tetramethyltetrahydro-2H-pyran-4-yl)-1H-imidazol-2-yl)-2-ethoxypyridine]

IC50 (human N-type Ca channel [1]; [3]): > 10000 nM
IC50 (human N-type Ca channel [2]; [4]): 508 nM
IC50 (human N-type Ca channel [2]; [8]): > 1000 nM
SMILES: COc1ccccc1-c1nc(C2CC(C)(C)OC(C)(C)C2)cn1-c1cnc(C)nc1 [Compound 8, 5-(2-(2-methoxyphenyl)-4-(2,2,6,6-tetramethyltetrahydro-2H-pyran-4-yl)-1H-imidazol-1-yl)-2-mithylpyrimidine]

IC50 (human N-type Ca channel [1]; [3]): 256 nM
N Type IC50 Data Qpatch Pulse=1 (human N-type Ca channel [2]; [9]): poor fit(0.01-0.3 µM)
N Type IC50 Data Qpatch Pulse=15 (human N-type Ca channel [2]; [10]): poor fit(0.01-0.3 µM)
SMILES: COc1ncccc1-c1nc(C2CC(C)(C)OC(C)(C)C2)cn1-c1ccc(C#N)c(C)c1 [Compound 15, 4-(2-(2-methoxypyridin-3-yl)-4-(2,2,6,6-tetramethyltetrahydro-2H-pyran-4-yl)-1H-imidazol-1-yl)-2-methylbenzonitrile]

IC50 (human N-type Ca channel [1]; [3]): 362 nM
IC50 (human N-type Ca channel [2]; [5]): > 1000 nM
SMILES: COc1ncccc1-c1nc(C2CC(C)(C)OC(C)(C)C2)cn1-c1ccc(Cl)c(C#N)c1 [Compound 84, 2-chloro-5-(2-(2-methoxypyridin-3-yl)-4-(2,2,6,6-tetramethyltetrahydro-2H-pyran-4-yl)-1H-imidazol-1-yl)benzonitrile]

IC50 (human N-type Ca channel [1]; [3]): 10900 nM
IC50 (human N-type Ca channel [2]; [11]): > 1000 nM
IC50 (human N-type Ca channel [2]; [5]): > 1000 nM
SMILES: COc1ccccc1-c1nc(C2CC(C)(C)OC(C)(C)C2)cn1Cc1ccc(C#N)cc1 [Compound 99, 4-((2-(2-methoxyphenyl)-4-(2,2,6,6-tetramethyltetrahydro-2H-pyran-4-yl)-1H-imidazol-1-yl)methyl)benzonitrile]

IC50 (human N-type Ca channel [1]; [3]): 1330 nM
IC50 (human N-type Ca channel [2]; [7]): 3600 nM
inhibition at 10 µM (human N-type Ca channel [2]; [12]): 29%
SMILES: COc1ncccc1-c1nc(C2CC(C)(C)OC(C)(C)C2)cn1-c1ccc(F)c(C#N)c1 [Compound 79, 2-fluoro-5-(2-(2-methoxypyridin-3-yl)-4-(2,2,6,6-tetramethyltetrahydro-2H-pyran-4-yl)-1H-imidazol-1-yl)benzonitrile]

IC50 (human N-type Ca channel [1]; [3]): 6400 nM
IC50 (human N-type Ca channel [2]; [13]): 1900 nM
N Type IC50 Data Qpatch Pulse=1 (human N-type Ca channel [2]; [9]): poor fit(0.01-0.3 µM)
SMILES: COc1ncccc1-c1nc(C2CC(C)(C)OC(C)(C)C2)cn1Cc1ccccc1Cl [Compound 27, 3-(1-(2-chlorobenzyl)-4-(2,2,6,6-tetramethyltetrahydro-2H-pyran-4-yl)-1H-imidazol-2-yl)-2-methoxypyridine]

IC50 (human N-type Ca channel [1]; [3]): 4810 nM
IC50 (human N-type Ca channel [2]; [11]): > 1000 nM
IC50 (human N-type Ca channel [2]; [5]): > 1000 nM
SMILES: CC1(C)CC(c2cn(-c3ccc(C#N)cc3)c(CC3CC3)n2)CC(C)(C)O1 [Compound 58, 4-(2-(cyclopropylmethyl)-4-(2,2,6,6-tetramethyltetrahydro-2H-pyran-4-yl)-1H-imidazol-1-yl)benzonitrile]

IC50 (human N-type Ca channel [1]; [3]): 37 nM
IC50 (human N-type Ca channel [2]; N Type IC50 Data Qpatch Pulse=1, Pulse=1, concentration range 0.01-0.3 µM): 751 nM
IC50 (human N-type Ca channel [2]; [13]): 1050 nM
SMILES: COc1ccccc1-c1nc(C2CC(C)(C)OC(C)(C)C2)cn1-c1ccc(OC(F)F)cc1 [Compound 61, 1-(4-(difluoromethoxy)phenyl) -2-(2-methoxyphenyl)-4-(2,2,6,6-tetramethyltetrahydro-2H-pyran-4-yl)-1H-imidazole]

IC50 (human N-type Ca channel [1]; [3]): 149 nM
IC50 (human N-type Ca channel [2]; [6]): 2200 nM
IC50 (human N-type Ca channel [2]; [7]): 671 nM
SMILES: COc1ccccc1-c1nc(C2CC(C)(C)OC(C)(C)C2)cn1-c1ccc(F)c(Cl)c1 [Compound 45, 1-(3-chloro-4-fluorophenyl)-2-(2-methoxyphenyl)-4-(2,2,6,6-tetramethyltetrahydro-2H-pyran-4-yl)-1H-imidazole]

IC50 (human N-type Ca channel [1]; [3]): 394 nM
IC50 (human N-type Ca channel [2]; [6]): 5800 nM
IC50 (human N-type Ca channel [2]; [7]): 7400 nM
SMILES: COc1ncccc1-c1nc(C2(O)CC(C)(C)OC(C)(C)C2)cn1-c1ccc(F)c(F)c1 [Compound 108, 4-(1-(3,4-difluorophenyl)-2-(2-methoxypyridin-3-yl)-1H-imidazol-4-yl)-2,2,6,6-tetramethyltetrahydro-2H-pyran-4-ol]

IC50 (human N-type Ca channel [1]; [3]): 630 nM
inhibition at 10 µM (human N-type Ca channel [2]; [12]): 28%
SMILES: COc1cccnc1-c1nc(C2CC(C)(C)OC(C)(C)C2)cn1-c1ccc(C#N)cc1 [Compound 12, 4-(2-(3-methoxypyridin-2-yl)-4-(2,2,6,6-tetramethyltetrahydro-2H-pyran-4-yl)-1H-imidazol-1-yl)benzonitrile]

IC50 (human N-type Ca channel [1]; [3]): 1620 nM
IC50 (human N-type Ca channel [2]; [5]): > 1000 nM
SMILES: COc1cc(-n2cc(C3CC(C)(C)OC(C)(C)C3)nc2-c2ccccc2OC)ccc1C#N [Compound 34, 2-methoxy-4-(2-(2-methoxyphenyl)-4-(2,2,6,6-tetramethyltetrahydro-2H-pyran-4-yl)-1H-imidazol-1-yl)benzonitrile]

IC50 (human N-type Ca channel [1]; [3]): 1290 nM
inhibition at 10 µM (human N-type Ca channel [2]; [12]): 28%
SMILES: COc1ncccc1-c1nc(C2(O)CC(C)(C)OC(C)(C)C2)cn1-c1ccc(C#N)c(F)c1 [Compound 119, 2-fluoro-4-(4-(4-hydroxy-2,2,6,6-tetramethyltetrahydro-2H-pyran-4-yl)-2-(2-methoxypyridin-3-yl)-1H-imidazol-1-yl)benzonitrile]

IC50 (human N-type Ca channel [1]; [3]): 142 nM
IC50 (human N-type Ca channel [2]; [6]): 2900 nM
IC50 (human N-type Ca channel [2]; [7]): 3080 nM
SMILES: COc1ncccc1-c1nc(C2CC(C)(C)OC(C)(C)C2)cn1-c1ccc(Cl)c(F)c1 [Compound 44, 3-(1-(4-chloro-3-fluorophenyl)-4-(2,2,6,6-tetramethyltetrahydro-2H-pyran-4-yl)-1H-imidazol-2-yl)-2-methoxypyridine]

IC50 (human N-type Ca channel [1]; [3]): 6200 nM
N Type IC50 Data Qpatch Pulse=1 (human N-type Ca channel [2]; [9]): poor fit(0.01-0.3 µM)
N Type IC50 Data Qpatch Pulse=15 (human N-type Ca channel [2]; [10]): poor fit(0.01-0.3 µM)
SMILES: COc1nccnc1-c1nc(C2CC(C)(C)OC(C)(C)C2)cn1-c1ccc(C#N)cc1 [Compound 87, 4-(2-(3-methoxypyrazin-2-yl)-4-(2,2,6,6-tetramethyltetrahydro-2H-pyran-4-yl)-1H-imidazol-1-yl)benzonitrile]

IC50 (human N-type Ca channel [1]; [3]): 109 nM
IC50 (human N-type Ca channel [2]; [7]): 4600 nM
SMILES: COc1ccncc1-c1nc(C2CC(C)(C)OC(C)(C)C2)cn1-c1ccc(Cl)cc1 [Compound 68, 3-(1-(4-chlorophenyl)-4-(2,2,6,6-tetramethyltetrahydro-2H-pyran-4-yl)-1H-imidazol-2-yl)-4-methoxypyridine]

IC50 (human N-type Ca channel [1]; [3]): 551 nM
IC50 (human N-type Ca channel [2]; [11]): > 1000 nM
IC50 (human N-type Ca channel [2]; [5]): > 1000 nM
SMILES: COc1ccccc1-c1nc(C2CC(C)(C)OC(C)(C)C2)cn1S(=O)(=O)C(F)(F)F [Compound 94, 2-(2-methoxyphenyl)-4-(2,2,6,6-tetramethyltetrahydro-2H-pyran-4-yl)1((trifluoromethyl)sulfonyl)-1H-imidazole]

IC50 (human N-type Ca channel [1]; [3]): 1440 nM
inhibition at 10 µM (human N-type Ca channel [2]; [12]): 40%
inhibition at 10 µM (human N-type Ca channel [2]; read-out: Qpatch Pulse=15 (percent inhibition)): 25%
SMILES: COc1ccccc1-c1nc(C2(O)CC(C)(C)OC(C)(C)C2)cn1-c1ccc(F)c(C#N)c1 [Compound 117, 2-fluoro-5-(4-(4-hydroxy-2,2,6,6-tetramethyltetrahydro-2H-pyran-4-yl)-2-(2-methoxyphenyl)-1H-imidazol-1-yl)benzonitrile]

IC50 (human N-type Ca channel [1]; [3]): 37 nM
IC50 (human N-type Ca channel [2]; [7]): 1740 nM
inhibition at 10 µM (human N-type Ca channel [2]; [12]): 48%
SMILES: COc1ccccc1-c1nc(C2(O)CC(C)(C)OC(C)(C)C2)cn1-c1ccc(Cl)cc1 [Compound 102, 4-(1-(4-chlorophenyl)-2-(2-methoxyphenyl)-1H-imidazol-4-yl)-2,2,6,6-tetramethyltetrahydro-2H-pyran-4-ol]

IC50 (human N-type Ca channel [1]; [3]): 151 nM
IC50 (human N-type Ca channel [2]; [4]): > 1000 nM
IC50 (human N-type Ca channel [2]; [5]): > 1000 nM
SMILES: COc1ncccc1-c1nc(C2CC(C)(C)OC(C)(C)C2)cn1-c1ccc(C#N)cc1F [Compound 76, 3-fluoro-4-(2-(2-methoxypyridin-3-yl)-4-(2,2,6,6-tetramethyltetrahydro-2H-pyran-4-yl)-1H-imidazol-1-yl)benzonitrile]

IC50 (human N-type Ca channel [1]; [3]): 96 nM
IC50 (human N-type Ca channel [2]; [6]): 6500 nM
IC50 (human N-type Ca channel [2]; [7]): 2010 nM
SMILES: COc1ccccc1-c1nc(C2CC(C)(C)OC(C)(C)C2)cn1-c1ccc(C(F)(F)F)nc1 [Compound 53, 5-(2-(2-methoxyphenyl)-4-(2,2,6,6-tetramethyltetrahydro-2H-pyran-4-yl)-1H-imidazol-1-yl)-2-(trifluoromethyl)pyridine]

Reference: patent publication EP3033337B1, “SUBSTITUTED IMIDAZOLES AS N-TYPE CALCIUM CHANNEL BLOCKERS” (Janssen Pharmaceutica NV, priority 2013, dated 2015)
